This passage reports activation and activity results from patent US20260007680A1, “Compounds and Their Use as PDE4 Activators” (Mironid Limited, priority 2022, published 2026).

SMILES strings stand for the structures.

Experiment [1] has as its target T1, PDE4B2 (Homo sapiens, UniProt Q07343).
T1 construct: the full length human PDE4B2 short isoform; made in house; cytosol fraction of cell lysate, prepared as described for PDE4D5
The experiment can be described thus: PDE assay, PDE4B2 short form (Experiment 1). The format is biochemical. The note with it: 100 μM test compound; mean % increase in counts over basal activity. The method, then:
One suitable method of detecting whether or not a compound is capable of serving as an activator of a PDE4 long form is using a two-step radio-assay procedure described in Experiment 1. In summary, the method involves incubating a PDE4 long form with a test small molecule activator, together with [^3H]-labelled cAMP to assess alterations in the breakdown of cAMP to the 5′-adenosine monophosphate (5′-AMP) product. A sample of the reaction mixture from such an incubation is subsequently treated with snake venom 5′-nucleotidase to allow conversion of the nucleotide [^3H]-labelled 5′-AMP to the uncharged nucleoside [^3H]-labelled adenosine, which can be separated and quantified to assess PDE4 activity and the effect of the test compound (Thompson, W. J. and Appleman, M. M. Biochemistry 10: 311-316, 1971, with some modifications as described in: Marchmont, R. J. and Houslay, M. D. Biochem J. 187: 381-92, 1980).
Experiment 1: Measurement of Modulation of Enzyme Activity by PDE4 Long Form Activators of the Present Invention Using Full-Length Human PDE4 Isoforms; Long Forms PDE4D5, PDE4C3, PDE4B1 and Short Form PDE4B2 • (Marchmont, R. J. and Houslay, M. D. Biochem. J. 187: 381-92, 1980)
Where stable cell lines were generated the clonal isolates were expanded to obtain cell lines that stably expressed the full-length human PDE4 long isoforms and the full length human PDE4B2 short isoform. These were called the HEK-PDE4D5, HEK-PDE4B1 and HEK-PDE4B2 cell lines, respectively.
PDE assays were performed in thin walled V-bottomed 96-well plates. The assays were performed at a final concentration of 10 mM Tris/5 mM MgCl2 plus PDE4D5 cell lysate cytosol fraction, containing over-expressed PDE4D5, with and without test compound. The lysate/compound mix were incubated together for 15 min at room temperature on an orbital shaker prior to addition of [^3H] cAMP (final concentration 1 μM [^3H] cAMP; Perkin Elmer) to a final volume of 50 μL per reaction. The reactions were then incubated for 10 minutes at 30° C., terminated by heating for 2 min at 95° C. and allowed to cool. Snake venom (12.5 μL of 1 mg/mL; Crotalus atrox, Sigma) was then added and the plates were agitated and incubated for a further 15 minutes at 30° C. Dowex ion exchange resin (Sigma, chloride form, 200-400 mesh; 200 μL; prepared as a 1:1 Dowex:water stock, thoroughly re-suspended and diluted 2:1 with ethanol) was then added to each well and the plates incubated for 15 min at room temperature on an orbital shaker ensuring sufficient agitation for resin suspension (550 RPM). The reaction mixture was then transferred to a 96 well filter plate (Millipore; 0.45 μm pore size) and filtered into a receiving 96-well plate to remove the dowex suspension. 30 μL of the filtered solution was then transferred to the wells of an Opti-plate (Perkin Elmer) 96 well assay plate and 120 μL of Microscint 40 scintillation fluid was added. The plate was then placed on an orbital shaker for 10 min at high speed (900 rpm) to mix the sample with scintillation fluid prior to quantitation using a plate based scintillation counter (Top-Count).
The % increase in counts in the presence of test compound at a particular concentration indicates the % increase in enzyme activity at that concentration.

The test system of experiment [2] is m-IMCD3 cells. Kind of experiment: Inhibition of PGE2-stimulated in vitro cyst formation in 3D culture of m-IMCD3 cells (Experiment 4). Type of experiment: cell-based, mouse. The note with it: Mus musculus, mIMCD3, 144 h, 10 μM test compound, mean cyst area compared to 100% for (DMSO + PGE2) and 0% for DMSO control, read-out: % Cyst area* after incubation with 10 μM test compound. The procedure:
HEK 293 and MDCK cells (Public Health England, Cell Culture Collections) were maintained in Dulbecco's Modified Eagle's Medium (DMEM) supplemented with 10% (v/v) fetal bovine serum (FBS) (Seralab), 2 mM L-glutamine and 100 U/ml penicillin streptomycin cocktail (ThermoFisher); termed complete media. Clonal HEK 293 cell lines were maintained in complete media supplemented with 0.6 mg/mL G418 (Enzo Life Sciences). Mouse inner medullary collecting duct (m-IMCD3) cells [American Type Culture Collection (ATCC)] were maintained in media consisting of DMEM/Hams F-12 50/50 Mix (DMEM F12; Corning) supplemented with penicillin streptomycin cocktail (100 U/ml) and FBS (10% v/v) (DMEM F12-10% FBS).
The mouse Inner Medullary Collecting Duct cell line (m-IMCD3) spontaneously forms cystic spheroids in 3D culture with a Type 1 collagen/Matrigel extracellular matrix. This process can be stimulated with agents which raise intracellular cAMP and is used as an in vitro model for the formation of cystic structures in the kidneys of patients with ADPKD.
Rat Collagen I (Fisher Scientific) is prepared on ice by neutralising with 1 M NaOH and diluting with a 2×volume of DMEM/F12+10% FBS. This is mixed 1:1.1 with ice cold Matrigel (Corning) for coating plates (coating mix), and 1:0.93 with Matrigel for cell plating (plating mix).
The assay is conducted in the wells of a 96-well plate culture dish using a total volume of 130 μL of collagen/Matrigel/DMEM F12-10% FBS suspension in growth media for each matrix plug per individual well. Initially, 30 μL of collagen/Matrigel/DMEM F12-10% FBS (coating mix) is added into the well of a 96 well plate and the collagen is set to a gel by incubating at 37° C. for at least 15 minutes. A second layer of 100 μL collagen/Matrigel suspension (plating mix) containing m-IMCD3 cells (2.75×10^6 m-IMCD3 cells per 96-well plate) is layered over the coating mix and the collagen/Matrigel/cell mix again set to a gel by incubating at 37° C. Cell cultures are maintained at 37° C. in an atmosphere of 5% CO2, 95% air.
Between 18 and 24 h after plating, test compound(s) as DMSO stock solutions [0.1% (v/v) final DMSO concentration] and PGE2 (100 nM final concentration) in DMEM F12-10% FBS are added in quadruplicate wells per condition. Media, together with the test compound and PGE2 are replenished after 2 or 3 days. After 6 days of culture z stack images of the wells are captured using the Nikon Eclipse Ti2-E microscope. Nikon General Analysis software is used to measure the following parameters in each well: the mean cyst area, the number of cysts, and the total cyst area.
PDE4 long form activators inhibited in vitro cyst formation in m-IMCD3 cells. Data are shown in FIG. 2 and Table 4 as mean cyst area (%), compared to 100% for (DMSO+PGE2) and 0% for DMSO control.

T1 sequence (Q07343 1-564 isoform Q07343-2): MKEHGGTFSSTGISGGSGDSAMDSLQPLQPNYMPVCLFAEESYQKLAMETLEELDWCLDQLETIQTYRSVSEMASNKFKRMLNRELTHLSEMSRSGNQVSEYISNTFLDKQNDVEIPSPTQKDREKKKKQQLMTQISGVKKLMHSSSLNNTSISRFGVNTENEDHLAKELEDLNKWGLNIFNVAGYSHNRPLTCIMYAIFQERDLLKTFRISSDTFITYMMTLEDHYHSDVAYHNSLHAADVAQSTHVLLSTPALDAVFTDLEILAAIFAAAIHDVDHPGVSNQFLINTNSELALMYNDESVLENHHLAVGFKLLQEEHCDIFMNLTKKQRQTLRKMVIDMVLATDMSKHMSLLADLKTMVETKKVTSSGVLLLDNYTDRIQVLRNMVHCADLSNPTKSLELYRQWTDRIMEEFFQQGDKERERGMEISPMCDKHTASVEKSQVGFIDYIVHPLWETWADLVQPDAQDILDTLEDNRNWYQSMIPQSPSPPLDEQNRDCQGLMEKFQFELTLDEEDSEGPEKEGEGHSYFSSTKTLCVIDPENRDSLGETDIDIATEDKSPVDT

As to `Cc1ccc(-c2nc3cc(C(=O)N[C@H]4CCOc5ccccc54)ccc3[nH]2)cn1` [Example 2, (S)—N-(chroman-4-yl)-2-(6-methylpyridin-3-yl)-1H-benzo[d]imidazole-5-carboxamide], the activation at 100 µM in experiment [1] is -39%. In experiment [2], the activity at 10 µM amounted to 17%.
Taken in the same sequence, the figures for `Cc1cncc(-c2nc3cc(C(=O)N[C@H]4CCOc5ccccc54)ccc3[nH]2)c1` [Example 4, (S)—N-(chroman-4-yl)-2-(5-methylpyridin-3-yl)-1H-benzo[d]imidazole-5-carboxamide] were -6% and 18%.
For `Cc1cncc(-c2nc3ccc(C(=O)N[C@H]4CCOc5ccccc54)cc3n2C)c1` [Example 28, (S)—N-(chroman-4-yl)-1-methyl-2-(5-methylpyridin-3-yl)-1H-benzo[d]imidazole-6-carboxamide], in experiment [1], the activation at 100 µM was found to be 5%. In addition, in experiment [2], the activity at 10 µM stood at 8%.
The like results for `Cc1ccncc1-c1nc2cc(C(=O)N[C@H]3CCOc4ccccc43)ccn2n1` [Example 53, (S)—N-(chroman-4-yl)-2-(4-methylpyridin-3-yl)-[1,2,4]triazolo[1,5-a]pyridine-7-carboxamide] were, in that order, -8% and 20%.
